Reference: ChEMBL document CHEMBL3885861, “Open TG-GATES”

Species on record: Rattus norvegicus
Assay: Open TG-GATES - Regimen: Daily Repeat
Format: toxicity, organism-based, Sprague-Dawley
Design: regimen Daily Repeat, gender Male, age 6 weeks
Details: in vivo, iv, route intravenous injection; for TG / TP / gamma-GTP / AST / BUN / CRE / DBIL / GLC / IP / K / LDH / PL / RALB / TBIL / TC / ALP / ALT: tissue Plasma; for KIDNEY_L / KIDNEY_R / KIDNEY_TOTAL: tissue Kidney; for LIVER: tissue Liver
[1] = 0 mg/kg, […], dose level Control, time 28 day
[2] = 10 mg/kg, 72 h, dose level Low, time 3 day
[3] = 10 mg/kg, 72 h, tissue Blood, dose level Low, time 3 day
[4] = 10 mg/kg, […], dose level Low, time 7 day
[5] = 10 mg/kg, […], dose level Low, time 14 day
[6] = 10 mg/kg, […], dose level Low, time 28 day
[7] = 10 mg/kg, […], tissue Blood, dose level Low, time 7 day
[8] = 10 mg/kg, […], tissue Blood, dose level Low, time 14 day
[9] = 10 mg/kg, […], tissue Blood, dose level Low, time 28 day

GENTAMICIN
TG [1]: 101 mg/dL | TP [1]: 6 g/dL | gamma-GTP [1]: 2.4 IU/L | TERMINAL_BW [2]: 228.4 g | Bas [3]: 0% | Eos [3]: 0.8% | Fbg [3]: 300.8 mg/dL | Ht [3]: 38.3% | Lym [3]: 71.8% | MCHC [3]: 34.8% | MCV [3]: 59.9 fL | Mono [3]: 3.8% | Neu [3]: 22% | PT [3]: 17 s | Plat [3]: 124.4 x10_4/uL | RBC [3]: 640 x10_4/ul | Ret [3]: 5.2% | WBC [3]: 102 x10_2/uL | KIDNEY_L [2]: 1 g | KIDNEY_R [2]: 1 g | KIDNEY_TOTAL [2]: 2 g | LIVER [2]: 10.2 g | AST [2]: 71.8 IU/L | BUN [2]: 18.2 mg/dL | CRE [2]: 0.2 mg/dL | DBIL [2]: 0 mg/dL | GLC [2]: 174.6 mg/dL | IP [2]: 6.6 mg/dL | K [2]: 4.5 meq/L | LDH [2]: 157.2 IU/L | PL [2]: 131.2 mg/dL | RALB [2]: 3 g/dL | TBIL [2]: 0.012 mg/dL | TC [2]: 66.4 mg/dL | TG [2]: 84.6 mg/dL | TP [2]: 5.5 g/dL | gamma-GTP [2]: 1.4 IU/L | TERMINAL_BW [4]: 260.4 g | TERMINAL_BW [5]: 320 g | TERMINAL_BW [6]: 376.9 g | APTT [7]: 22.1 s | Bas [7]: 0% | Eos [7]: 1.4% | Fbg [7]: 290 mg/dL | Hb [7]: 13.7 g/dL | Ht [7]: 40% | Lym [7]: 75.8% | MCHC [7]: 34.4% | MCV [7]: 60.6 fL | Mono [7]: 2.6% | Plat [7]: 122 x10_4/uL | RBC [7]: 660.6 x10_4/ul | Ret [7]: 4.7% | WBC [7]: 106.3 x10_2/uL | APTT [8]: 22.5 s | Bas [8]: 0% | Eos [8]: 1% | Fbg [8]: 298.2 mg/dL | Hb [8]: 14.1 g/dL | Ht [8]: 39.7% | Lym [8]: 75.8% | MCH [8]: 20.6 pg | MCHC [8]: 35.5% | MCV [8]: 58.2 fL | Mono [8]: 2.8% | Neu [8]: 18.8% | PT [8]: 16.5 s | Plat [8]: 124.8 x10_4/uL | RBC [8]: 683 x10_4/ul | Ret [8]: 4.4% | WBC [8]: 118.2 x10_2/uL | APTT [9]: 25.6 s | Bas [9]: 0% | Eos [9]: 1.6% | Fbg [9]: 309.2 mg/dL | Ht [9]: 43.2% | MCHC [9]: 36.1% | MCV [9]: 53.9 fL | Mono [9]: 2% | Neu [9]: 16.4% | PT [9]: 16.5 s | Plat [9]: 112.8 x10_4/uL | RBC [9]: 803.4 x10_4/ul | Ret [9]: 1.9% | WBC [9]: 114.2 x10_2/uL | KIDNEY_L [4]: 1 g | KIDNEY_R [4]: 1 g | KIDNEY_TOTAL [4]: 2.1 g | KIDNEY_L [5]: 1.3 g | KIDNEY_R [5]: 1.3 g | KIDNEY_TOTAL [5]: 2.6 g | KIDNEY_L [6]: 1.4 g | KIDNEY_R [6]: 1.4 g | KIDNEY_TOTAL [6]: 2.7 g | LIVER [5]: 13.6 g | LIVER [6]: 13.7 g | ALP [4]: 1411.6 IU/L | ALT [4]: 40.2 IU/L | AST [4]: 73 IU/L | BUN [4]: 18.2 mg/dL | CRE [4]: 0.2 mg/dL | DBIL [4]: 0 mg/dL | GLC [4]: 188.6 mg/dL | IP [4]: 6.5 mg/dL | K [4]: 4.3 meq/L | LDH [4]: 203.6 IU/L | PL [4]: 146.8 mg/dL | RALB [4]: 3 g/dL | TBIL [4]: 0.008 mg/dL | TC [4]: 70.4 mg/dL | TG [4]: 121.8 mg/dL | TP [4]: 5.5 g/dL | gamma-GTP [4]: 1.2 IU/L | ALP [5]: 1519.6 IU/L | ALT [5]: 37 IU/L | AST [5]: 65.4 IU/L | CRE [5]: 0.2 mg/dL | DBIL [5]: 0 mg/dL | GLC [5]: 186.6 mg/dL | IP [5]: 6.3 mg/dL | K [5]: 4.4 meq/L | LDH [5]: 131.2 IU/L | RALB [5]: 3.1 g/dL | TBIL [5]: 0.006 mg/dL | TC [5]: 61.8 mg/dL | TG [5]: 152 mg/dL | TP [5]: 5.8 g/dL | gamma-GTP [5]: 1.8 IU/L | AST [6]: 66 IU/L | CRE [6]: 0.2 mg/dL | DBIL [6]: 0 mg/dL | GLC [6]: 176 mg/dL | IP [6]: 5.8 mg/dL | K [6]: 4.1 meq/L | LDH [6]: 137.2 IU/L | PL [6]: 132 mg/dL | RALB [6]: 3.1 g/dL | TBIL [6]: 0.004 mg/dL | TC [6]: 67.4 mg/dL | TG [6]: 113.6 mg/dL | TP [6]: 6.1 g/dL
